In brackets after ≈: the same amount, converted by molar mass. Activity calls are given as the source filed them. The calls are words filed in the database; no cut-off is given here.
Tests used:
[1] = target: Ribosomal protein S6 kinase alpha-3 (Homo sapiens) (UniProt P51812); experiment: Inhibition of wild type […] human RSK2 (M1 to D394 residues) expressed in mammalian expression system assessed as residual activity at 10 uM relative to control
SU-DHL-6 [2] = experiment: Inhibition of P13K signaling pathway in human SU-DHL-6 cells assessed as reduction in […] incubated for 4 hrs by Western blot analysis; type: cell-based; conditions: dose 2-50 µM, DDE = dose-dependent effect
[3] = Solubility of the compound in PBS; type: physicochemical
[4] = AUC (0 to infinity) in ICR mouse at 3 mg/kg, iv measured upto 24 hrs by LC-MS/MS analysis; type: ADME, organism-based; parameters: time < 24 hrs, dose 3 mg/kg, route iv; conditions: in vivo
[5] = Toxicity in nude mouse xenografted with human Pfeiffer cells assessed as effect on body weight at 5 mg/kg, ip BID for 21 days and measured twice weekly; type: organism-based; conditions: in vivo, 504 h, time 21 day
Mus musculus = experiment: In vivo inhibition of PI3K signalling in human Pfeiffer cells xenografted in nude mouse assessed as reduction in Akt phosphorylation at Ser473 at 5 mg/kg, ip by Western blotting analysis; type: functional, organism-based
Pfeiffer [6] = experiment: Induction of apoptosis in human Pfeiffer cells assessed as early apoptotic cells at 10 uM incubated for 48 hrs by annexin V-FITC staining based flow cytometry (reference value: 4.16 %); type: functional
Pfeiffer [7] = experiment: Antitumor activity against human Pfeiffer cells xenografted in nude mouse assessed as tumor growth inhibition at 5 mg/kg, ip BID for 21 days and measured twice weekly; type: functional; conditions: 504 h, time 21 day, read-out: TGI
[8] = AUC (0 to t) in ICR mouse at 3 mg/kg, iv measured upto 24 hrs by LC-MS/MS analysis; type: ADME, organism-based; parameters: time < 24 hrs, dose 3 mg/kg, route iv; conditions: in vivo
SU-DHL-6 [9] = experiment: Antiproliferative activity against human SU-DHL-6 cells assessed as cell growth inhibition incubated for 96 hrs by cell titer glo assay; type: functional, cell-based; conditions: SU-DHL-6, 96 h
[10] = Toxicity in nude mouse xenografted with human Pfeiffer cells assessed as effect on body weight at 75 mg/kg, po BID for 21 days and measured twice weekly; type: organism-based; conditions: in vivo, 504 h, time 21 day
SU-DHL-6 [11] = experiment: Induction of apoptosis in human SU-DHL-6 cells assessed as apoptotic rate incubated for 48 hrs by annexin V-FITC staining based flow cytometry; type: functional, cell-based; conditions: dose 2-50 µM, DDE = dose-dependent effect
B-cell = experiment: Inhibition of PI3Kdelta dependent mouse B-cell activation assessed as reduction in ratio of CD86 and B220 level at 0.001 to 0.1 uM stimulated with IgM for 1 hr prior to compound addition and measured after 24 hrs by flow cytometry analysis; type: functional, cell-based; conditions: dose 0.001-0.1 µM, time 25.0 hrs
Pfeiffer [12] = experiment: Induction of apoptosis in human Pfeiffer cells assessed as necrotic cells at 10 uM incubated for 48 hrs by annexin V-FITC staining based flow cytometry (reference value: 6.62 %); type: functional

Ribosomal protein S6 kinase alpha-3 (Homo sapiens), sequence (P51812 whole entry, the tested form may be a part): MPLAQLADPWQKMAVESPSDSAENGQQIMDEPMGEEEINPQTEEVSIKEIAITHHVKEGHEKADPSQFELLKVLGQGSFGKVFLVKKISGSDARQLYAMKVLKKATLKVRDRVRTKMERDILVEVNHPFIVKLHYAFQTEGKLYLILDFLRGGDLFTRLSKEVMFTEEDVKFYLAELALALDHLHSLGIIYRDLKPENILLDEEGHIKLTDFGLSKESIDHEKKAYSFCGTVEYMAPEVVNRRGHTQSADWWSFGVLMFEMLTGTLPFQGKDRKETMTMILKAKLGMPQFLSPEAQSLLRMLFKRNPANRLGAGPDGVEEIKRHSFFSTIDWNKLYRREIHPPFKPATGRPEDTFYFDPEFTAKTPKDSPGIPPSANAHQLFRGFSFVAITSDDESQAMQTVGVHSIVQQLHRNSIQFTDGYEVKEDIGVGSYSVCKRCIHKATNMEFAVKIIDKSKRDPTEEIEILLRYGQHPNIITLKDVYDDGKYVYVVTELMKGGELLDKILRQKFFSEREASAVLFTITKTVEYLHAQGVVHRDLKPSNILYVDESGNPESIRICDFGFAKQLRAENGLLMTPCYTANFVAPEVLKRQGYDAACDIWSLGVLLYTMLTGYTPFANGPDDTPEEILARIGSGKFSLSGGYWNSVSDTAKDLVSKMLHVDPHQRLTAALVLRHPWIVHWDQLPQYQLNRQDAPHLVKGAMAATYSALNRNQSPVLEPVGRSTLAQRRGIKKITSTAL

Activity [1]: 23%
solubility [3]: 44.5 µM (≈ 18.4 µg/mL)
AUC(0-inf) [4]: 1.37 µg·h/mL
AUC(0-t) at 24 h [8]: 1.37 µg·h/mL
IC50 (SU-DHL-6 [9]): 1.43 µM
Structure (SMILES): CCC(=O)N1CC[C@H](Nc2ncnc3sc(-c4cnc(OC)c(OC)c4)cc23)C1
inhibition (SU-DHL-6 [2]): Dde
Activity [5]: 10%
inhibition (Mus musculus): Active
Activity (Pfeiffer [6]): 6.98%
inhibition in vivo at 5 mg/kg (Pfeiffer [7]): 69%
Activity [10]: 10%
Activity (SU-DHL-6 [11]): Dde
inhibition (B-cell): Active
Activity (Pfeiffer [12]): 6.72%

From ChEMBL document CHEMBL5154925, “Design and Optimization of Thienopyrimidine Derivatives as Potent and Selective PI3Kδ Inhibitors for the Treatment of B-Cell Malignancies” (J Med Chem, 2022)
